Legend:
VEGF receptor KDR = biological target: T1, VEGF receptor KDR (Homo sapiens, UniProt P35968); assay: In vitro receptor tyrosine kinase assay (DELFIA), VEGF receptor KDR; format: biochemical; conditions: Table 30; ATP 0.6 uM, enzyme 5 nM; read-out: VEGF(enz.) (IC50)
T1 construct: made in house; host or cells: Sf9 cells (Spodoptera frugiperda), recombinant baculovirus

U87 cells = assay: In vivo solid tumor disease model, U87 xenograft; design: species or system female athymic CD 1 mice; conditions: U87MG
Source text: (§1) In Vivo Solid Tumor Disease Model
(§2) This test measures the capacity of compounds to inhibit solid tumor growth.
(§3) Tumor xenografts were established in the flank of female athymic CD 1 mice (Charles River Inc.), by subcutaneous injection of 1×10^6U87, A431 or SKLMS cells/mouse. Once established, tumors were then serially passaged s.c. in nude mice hosts. Tumor fragments from these host animals were used in subsequent compound evaluation experiments. For compound evaluation experiments female nude mice weighing approximately 20 g were implanted s.c. by surgical implantation with tumor fragments of ˜30 mg from donor tumors. When the tumors were approximately 100 mm^3 in size (˜7-10 days following implantation), the animals were randomized a separated into treatment and control groups. Each group contained 6-8 tumor-bearing mice, each of which was ear-tagged and followed individually throughout the experiment
(§4) Mice were weighed and tumor measurements are taken by calipers three times weekly, starting on Day 1. These tumor measurements were converted to tumor volume by the well-known formula (L+W/4)^34/3π. The experiment was terminated when the control tumors reached a size of approximately 1500 mm^3. In this model, the change in mean tumor volume for a compound treated group/the change in mean tumor volume of the control group (non-treated or vehicle treated)×100 (ΔT/ΔC) was subtracted from 100 to give the percent tumor growth inhibition (% TGI) for each test compound. In addition to tumor volumes, body weight of animals were monitored twice weekly for up to 3 weeks.
(§5) Regiment of administration was once daily.

SKLMS cells = assay: In vivo solid tumor disease model, SKLMS xenograft; design: species or system female athymic CD 1 mice; conditions: SKLMS40, vehicle DMSO
Source text: as §1, §2, §3, §4, §5

A549 = assay: In vivo solid tumor disease model, A549 xenograft; design: species or system female athymic CD 1 mice
MKN74 = assay: In vivo solid tumor disease model, MKN74 xenograft; design: species or system female athymic CD 1 mice; conditions: vehicle DMSO, 10 days
SW48 = assay: In vivo solid tumor disease model, SW48 xenograft; design: species or system female athymic CD 1 mice; conditions: 30 mg/kg once daily IP, vehicle DMSO, 14 days
HCT116 = assay: In vivo solid tumor disease model, HCT116 xenograft; design: species or system female athymic CD 1 mice
[1] = biological target: T2, recombinant human c-Met/HGF receptor (Homo sapiens, UniProt P08581); assay: In vitro receptor tyrosine kinase assay (DELFIA), c-Met/HGF receptor; format: biochemical; conditions: Table 30; ATP 10 uM, enzyme 25 nM; read-out: C-Met (enz.) (IC50)
T2 construct: His tag (histidine tag from pBlueBacHis2A); made in house; host or cells: Hi-5 cells (Trichoplusia ni), recombinant baculovirus

TPR-MET fusion protein = TPR-MET fusion protein (Homo sapiens, UniProt P08581); assay: C-Met phosphorylation cell-based assay (MNNGHOS cells, immunoblot); conditions: Table 30, 3 hours treatment, read-out: C-Met cell-based Y1230-34-35 tpr-met inhibition (IC50)
Source text: C-Met Phosphorylation Cell-Based Assay

A431 cells = assay: In vivo solid tumor disease model, A431 xenograft; design: species or system female athymic CD 1 mice; conditions: 30 mg/kg once daily IP, vehicle DMSO
Source text: as §1, §2, §3, §4, §5

DU145 = assay: In vivo solid tumor disease model, DU145 xenograft; design: species or system female athymic CD 1 mice; conditions: vehicle DMSO, 10 days
[2] = 15 mg/kg once daily IP, vehicle DMSO, 10 days
[3] = 30 mg/kg once daily IP, vehicle DMSO, 14 days
[4] = 100 mg/kg once daily PO, vehicle 5% DMSO - 1% Tween-80 in water, 14 days
[5] = HCT116, 30 mg/kg once daily IP, vehicle DMSO, 14 days
[6] = 30 mg/kg once daily IP, 10 days
[7] = 15 mg/kg once daily IV, vehicle 50/50 DMSO:40/60 PEG/0.2 N HCl in saline, 10 days
[8] = 30 mg/kg once daily IP, vehicle DMSO, 10 days
[9] = 30 mg/kg once daily IV, vehicle 50/50 DMSO:40/60 PEG/0.2 N HCl in saline, 10 days
[10] = 75 mg/kg once daily PO, vehicle 5% DMSO - 1% Tween-80 in water, 12 days

T1 sequence (P35968 806-1356): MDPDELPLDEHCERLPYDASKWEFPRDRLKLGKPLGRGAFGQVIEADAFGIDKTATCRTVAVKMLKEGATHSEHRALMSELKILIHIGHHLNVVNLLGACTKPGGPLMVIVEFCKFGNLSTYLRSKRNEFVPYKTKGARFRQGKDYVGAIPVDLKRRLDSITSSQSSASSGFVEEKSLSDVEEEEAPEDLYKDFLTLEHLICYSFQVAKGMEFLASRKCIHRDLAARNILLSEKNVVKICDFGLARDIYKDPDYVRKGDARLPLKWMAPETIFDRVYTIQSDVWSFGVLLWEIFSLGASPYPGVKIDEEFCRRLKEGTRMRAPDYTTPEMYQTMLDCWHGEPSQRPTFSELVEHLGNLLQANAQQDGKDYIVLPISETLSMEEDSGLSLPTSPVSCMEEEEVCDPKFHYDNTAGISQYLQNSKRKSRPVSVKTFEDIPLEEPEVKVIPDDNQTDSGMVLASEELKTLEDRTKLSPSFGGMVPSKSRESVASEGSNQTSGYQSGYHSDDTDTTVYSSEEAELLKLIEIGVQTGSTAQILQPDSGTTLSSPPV
Sequence of TPR-MET fusion protein (P08581 with tags, fused parts or gaps): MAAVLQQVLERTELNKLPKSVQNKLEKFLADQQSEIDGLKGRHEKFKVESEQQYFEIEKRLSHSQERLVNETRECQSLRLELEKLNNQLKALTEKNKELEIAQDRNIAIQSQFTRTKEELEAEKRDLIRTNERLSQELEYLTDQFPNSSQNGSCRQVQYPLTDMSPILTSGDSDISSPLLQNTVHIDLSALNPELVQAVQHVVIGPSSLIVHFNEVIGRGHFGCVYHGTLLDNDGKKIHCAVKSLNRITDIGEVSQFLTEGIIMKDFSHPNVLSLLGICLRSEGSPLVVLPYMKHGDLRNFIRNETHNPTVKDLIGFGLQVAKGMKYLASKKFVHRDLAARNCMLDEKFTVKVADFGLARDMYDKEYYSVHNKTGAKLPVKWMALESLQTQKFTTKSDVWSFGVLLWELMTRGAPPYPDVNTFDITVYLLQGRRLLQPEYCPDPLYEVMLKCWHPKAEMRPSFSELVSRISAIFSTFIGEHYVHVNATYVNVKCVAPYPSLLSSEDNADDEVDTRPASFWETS
T2 sequence (P08581 1078-1337): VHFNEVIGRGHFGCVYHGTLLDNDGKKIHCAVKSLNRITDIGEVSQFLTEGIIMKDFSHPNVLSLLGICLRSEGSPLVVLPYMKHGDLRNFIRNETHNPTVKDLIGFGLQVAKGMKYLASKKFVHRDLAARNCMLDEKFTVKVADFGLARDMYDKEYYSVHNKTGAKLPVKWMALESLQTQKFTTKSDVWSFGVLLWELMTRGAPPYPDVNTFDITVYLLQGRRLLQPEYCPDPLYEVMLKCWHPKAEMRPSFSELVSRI

Row | Structure (SMILES) | IC50 (VEGF receptor KDR) [nM] | IC50 [1] [nM] | IC50 (TPR-MET fusion protein) [nM] | Tumor Growth Inhibition (%) (U87 cells; [2]) | Tumor Growth Inhibition (%) (U87 cells; [3]) | Tumor Growth Inhibition (%) (U87 cells; [4]) | Tumor Growth Inhibition (%) (A549; [3]) | Tumor Growth Inhibition (%) (SW48) | Tumor Growth Inhibition (%) (A431 cells; 14 days) | Tumor Growth Inhibition (%) (DU145; 15 mg/kg once daily IP) | other results
1 | CN(C)C(=O)c1cc2nccc(Oc3ccc(NC(=S)NC(=O)Cc4ccccc4)cc3F)c2s1 [Example 1, 1-(4-(2-(Dimethylcarbamoyl)thieno[3,2-b]pyridin-7-yloxy)-3-fluorophenyl)-3-(2-phenylacetyl)thiourea] | < 50 | – | – | c (% TGI in the range of 25-49) | c (% TGI in the range of 25-49) | c (% TGI in the range of 25-49) | b (% TGI in the range of 50-74) | b (% TGI in the range of 50-74) | – | – | Tumor Growth Inhibition (%) (U87 cells; 30 mg/kg once daily IP, vehicle DMSO, 7 days): c (% TGI in the range of 25-49); Tumor Growth Inhibition (%) (U87 cells; 30 mg/kg once daily IP, vehicle DMSO, 14 days (a* footnote class)): a* (greater than 100% tumor growth inhibition (i.e., tumor shrinkage)); Tumor Growth Inhibition (%) (SKLMS cells; 30 mg/kg once daily IP, 14 days): b (% TGI in the range of 50-74); Tumor Growth Inhibition (%) (MKN74; 15 mg/kg once daily IP): d (% TGI in the range of 0-24); Tumor Growth Inhibition (%) (MKN74; 30 mg/kg once daily IP): c (% TGI in the range of 25-49); Tumor Growth Inhibition (%) (HCT116; [5]): c (% TGI in the range of 25-49)
2 | CCN(CC)C(=O)c1cc2nccc(Oc3ccc(NC(=S)NC(=O)Cc4ccccc4)cc3F)c2s1 [Example 7, 1-(4-(2-(diethylcarbamoyl)thieno[3,2-b]pyridin-7-yloxy)-3-fluorophenyl)-3-(2-phenylacetyl)thiourea] | 250 to 500 | 50 to 250 | 50 to 250 | – | – | – | – | c (% TGI in the range of 25-49) | – | – | Tumor Growth Inhibition (%) (HCT116; [5]): b (% TGI in the range of 50-74)
3 | O=C(Cc1ccccc1)NC(=S)Nc1ccc(Oc2ccnc3cc(-c4nccs4)sc23)c(F)c1 [Example 12, 1-(4-(2-(Thiazol-2-yl)thieno[3,2-b]pyridin-7-yloxy)-3-fluorophenyl)-3-(2-phenylacetyl)thiourea] | < 50 | 50 to 250 | < 50 | – | b (% TGI in the range of 50-74) | – | – | – | – | – | Tumor Growth Inhibition (%) (HCT116; HST116, 30 mg/kg once daily IP, vehicle DMSO, 14 days): c (% TGI in the range of 25-49)
4 | O=C(Cc1ccccc1)NC(=S)Nc1ccc(Oc2ccnc3cc(C(=O)N4CC[C@@H](O)C4)sc23)c(F)c1 [Example 38, (R)-N-(3-Fluoro-4-(2-(3-hydroxypyrrolidine-1-carbonyl)thieno[3,2-b]pyridin-7-yloxy)phenylcarbamothioyl)-2-phenylacetamide] | – | – | – | – | – | – | c (% TGI in the range of 25-49) | – | c (% TGI in the range of 25-49) | – | –
5 | Cl.O=C(Cc1c(F)cccc1F)NC(=S)Nc1ccc(Oc2ccnc3cc(C(=O)N4CCCC4)sc23)c(F)c1 [Example 157, 2-(2,6-Difluorophenyl)-N-(3-fluoro-4-(2-(pyrrolidine-1-carbonyl)thieno[3,2-b]pyridin-7-yloxy)phenylcarbamothioyl)acetamide hydrochloride] | – | – | – | – | – | – | c (% TGI in the range of 25-49) | – | c (% TGI in the range of 25-49) | – | –
6 | CCn1cnc(-c2cc3nccc(Oc4ccc(NC(=S)NC(=O)Cc5ccccc5F)cc4F)c3s2)c1 [Example 242, 1-{4-[2-(1-Ethyl-1H-imidazol-4-yl)-thieno[3,2-b]pyridin-7-yloxy]-3-fluoro-phenyl}-3-[2-(2-fluoro-phenyl)-acetyl]-thiourea] | – | – | – | – | – | – | – | – | – | – | Tumor Growth Inhibition (%) (U87 cells; 75 mg/kg once daily PO, vehicle 5% DMSO - 1% Tween-80 in water, 14 days): a (% TGI in the range of 75-100); Tumor Growth Inhibition (%) (HCT116; HCT116, 75 mg/kg once daily PO, vehicle 5% DMSO - 1% Tween-80 in water, 14 days): b (% TGI in the range of 50-74)

Second part, led by results:

Row | IC50 (VEGF receptor KDR) [nM] | IC50 [1] [nM] | IC50 (TPR-MET fusion protein) [nM] | Structure (SMILES) | Tumor Growth Inhibition (%) (U87 cells; [2]) | Tumor Growth Inhibition (%) (U87 cells; [3]) | Tumor Growth Inhibition (%) (U87 cells; [4]) | Tumor Growth Inhibition (%) (A549; [3]) | Tumor Growth Inhibition (%) (SW48) | Tumor Growth Inhibition (%) (A431 cells; 14 days) | Tumor Growth Inhibition (%) (DU145; 15 mg/kg once daily IP) | other results
7 | < 50 | – | – | O=C(Cc1ccccc1)NC(=S)Nc1ccc(Oc2ccnc3cc(-c4ccccn4)sc23)c(F)c1 [Example 13, 1-(4-(2-(Pyridin-2-yl)thieno[3,2-b]pyridin-7-yloxy)-3-fluorophenyl)-3-(2-phenylacetyl)thiourea] | – | a (% TGI in the range of 75-100) | – | – | d (% TGI in the range of 0-24) | – | – | Tumor Growth Inhibition (%) (A431 cells; 7 days): b (% TGI in the range of 50-74); Tumor Growth Inhibition (%) (SKLMS cells; [6]): b (% TGI in the range of 50-74); Tumor Growth Inhibition (%) (DU145; 30 mg/kg once daily IP): d (% TGI in the range of 0-24)
8 | < 50 | – | – | Cn1ccnc1-c1cc2nccc(Oc3ccc(NC(=S)NC(=O)Cc4ccccc4)cc3F)c2s1 [Example 15, N-(3-Fluoro-4-(2-(1-methyl-1H-imidazol-2-yl)thieno[3,2-b]pyridin-7-yloxy)phenylcarbamothioyl)-2-phenylacetamide] | b (% TGI in the range of 50-74) | b (% TGI in the range of 50-74) | a (% TGI in the range of 75-100) | b (% TGI in the range of 50-74) | – | b (% TGI in the range of 50-74) | d (% TGI in the range of 0-24) | Tumor Growth Inhibition (%) (U87 cells; [7]): b (% TGI in the range of 50-74); Tumor Growth Inhibition (%) (U87 cells; [8]): b (% TGI in the range of 50-74); Tumor Growth Inhibition (%) (U87 cells; [9]): b (% TGI in the range of 50-74); Tumor Growth Inhibition (%) (SKLMS cells; [6]): b (% TGI in the range of 50-74); Tumor Growth Inhibition (%) (A549; 50 mg/kg once daily PO, vehicle 5% DMSO - 1% Tween-80 in water, 11 days): c (% TGI in the range of 25-49); Tumor Growth Inhibition (%) (A549; 75 mg/kg once daily PO, vehicle 5% DMSO - 1% Tween-80 in water, 10 days): b (% TGI in the range of 50-74); Tumor Growth Inhibition (%) (A549; [10]): c (% TGI in the range of 25-49); Tumor Growth Inhibition (%) (MKN74; 15 mg/kg once daily IP): c (% TGI in the range of 25-49); Tumor Growth Inhibition (%) (MKN74; 30 mg/kg once daily IP): c (% TGI in the range of 25-49); Tumor Growth Inhibition (%) (HCT116; HCT116, 15 mg/kg once daily IP, vehicle DMSO, 10 days): c (% TGI in the range of 25-49); Tumor Growth Inhibition (%) (HCT116; HCT116, 30 mg/kg once daily IP, vehicle DMSO, 10 days): c (% TGI in the range of 25-49)
9 | < 50 | 50 to 250 | < 50 | O=C(Cc1ccccc1)NC(=S)Nc1ccc(Oc2ccnc3cc(C(=O)N4CCCC4)sc23)c(F)c1 [Example 37, 1-{3-Fluoro-4-[2-(pyrrolidine-1-carbonyl)-thieno[3,2-b]pyridin-7-yloxy]-phenyl}-3-phenylacetyl-thiourea] | – | – | – | c (% TGI in the range of 25-49) | – | b (% TGI in the range of 50-74) | d (% TGI in the range of 0-24) | Tumor Growth Inhibition (%) (U87 cells; [7]): b (% TGI in the range of 50-74); Tumor Growth Inhibition (%) (U87 cells; [9]): c (% TGI in the range of 25-49); Tumor Growth Inhibition (%) (DU145; 30 mg/kg once daily IP): d (% TGI in the range of 0-24)
10 | < 50 | – | – | Cn1cnnc1-c1cc2nccc(Oc3ccc(NC(=S)NC(=O)Cc4ccccc4)cc3F)c2s1 [Example 75, N-(3-Fluoro-4-(2-(4-methyl-4H-1,2,4-triazol-3-yl)thieno[3,2-b]pyridin-7-yloxy)phenylcarbamothioyl)-2-phenylacetamide] | d (% TGI in the range of 0-24) | c (% TGI in the range of 25-49) | b (% TGI in the range of 50-74) | – | – | – | c (% TGI in the range of 25-49) | Tumor Growth Inhibition (%) (U87 cells; [8]): c (% TGI in the range of 25-49); Tumor Growth Inhibition (%) (SKLMS cells; 15 mg/kg once daily IP, 10 days): b (% TGI in the range of 50-74); Tumor Growth Inhibition (%) (A549; [10]): b (% TGI in the range of 50-74)
